Results published in US20230390277A1, “METHODS TO SENSITIZE TUMORS TO TREATMENT BY IMMUNOTHERAPY” (Ohio State Innovation Foundation, priority 2020, published 2023).

Legend:
[1] = tested on: pODD-Luc reporter in MP2 pODD cells; experiment: in vitro luciferase assay, MP2 pODD cells; type: cell-based, human; conditions: 16 hours, 1 mM
Experimental: (§1) PCR-amplified cassette was then digested with Asci and Pmel restriction enzymes and ligated into pLenti-C-Myc-DDK-IRES-Puro. Correct orientation and sequence was confirmed by Sanger DNA sequencing. HeLa pODD and MIP2 pODD transfectants were selected with 2 μg/ml Puromycin for two weeks. Stable MP2 CMV Cells were generated by lentiviral transduction of MP2 cells with pLenti-CMV-Puro-Luc lentiviral vector (Addgene#17477) with 2 Puromycin selection for two weeks. Cells were grown in Dulbecco's Modified Eagle's Medium (DMEM) containing 25 mM D-glucose, 4 mM glutamine and 44 mM sodium bicarbonate in 5% CO2, if not stated otherwise. The cells were exposed to hypoxia (1% O2) in H35 Hypoxic Workstation (Hypoxygen) with 5% CO2 at 37° C. In some experiments, we used a hypoxia mimetic dimethyloxalyglycine (DMOG) as described. Cell counts and cellular proliferation were established using hemocytometer to determine the cell number and trypan blue exclusion assay to establish the fraction of viable/dead cells. All human cell lines have been authenticated using STR profiling within the past 3 years. All experiments were performed with mycoplasma-free cells.
In vitro luciferase Assay. Proteins were extracted using Luciferase Assay Lysis Buffer (125 mM Tris-HCl, pH 7.5, 11.0 mM DTT, 10 mM EGTA, 50% Glycerol, 5% Triton X-100) and 200 μl/sample were transferred to 96-well plate and D-luciferin was added to the final concentration of 150 μg/ml immediately before the assay. Bioluminescence was measured on a Synergy H1 Hybrid Plate Reader (Biotek) after a 10-minute incubation period (10 slsample, Gain=150) in triplicates.

[2] = tested on: MP2 CMV cells; experiment: in vitro luciferase assay, MP2 CMV control cells; type: cell-based, human; conditions: 1 mM DMOG, constitutive CMV reporter
Experimental: as §1
In vitro luciferase Assay. […] Bioluminescence was measured on a Synergy H1 Hybrid Plate Reader (Biotek) after a 10-minute incubation period (10 slsample, Gain=150) in triplicates.

[3] = tested on: MP2 pODD flank tumors; experiment: in vivo bioluminescent imaging, heterotopic MP2 pODD flank tumors; parameters: species or system mouse
Experimental: In vivo bioluminescent imaging. […] For heterotopic flank tumor experiments, 1×10^6 HeLa pODD or 5×10^6 MP2 cells were injected subcutaneously (s.c.) into the flanks of 6-wk-old female (HeLa pODD) or male (N1P2 pODD or MP2 CMV) immunocompromised athymic nu/nu mice. Replicate experiments with groups of 4-6 mice were used for statistical reproducibility. Caliper measurements of opposing diameters were used to calculate the tumor volumes using the modified ellipsoidal formula: tumor volume=(length×width^2)[23]. Upon reaching 100 mm^3, the animals were given 100 mg/kg D-luciferin intraperitoneally and bioluminescence images were captured using IVIS In Vivo Imaging System Lumina II (Perkin Elmer Inc). […] Bioluminescent data were analyzed using living Image software (Perkin Elmer Inc) and calculated as photon flux/sec. Obtained individual photon flux peak values were then normalized to baseline for each mouse and averaged per group. Gas inhalation experiments were performed by switching medical air and carbogen gas sources for the IVIS anesthesia vaporizer. Initial baselines were established in medical air under anesthesia, then the mice were subjected to 30 minutes of either medical air or carbogen rebreathing in an air-tight chamber while awake. After 30 minutes, photon flux was established in respective gas sources as a carrier for isoflurane anesthesia.

[4] = target: T1, PDE10A (Homo sapiens, UniProt Q9Y233); experiment: PDE10A purified enzyme activity assay (BPS Bioscience); type: biochemical; conditions: dose response analysis
T1 construct: purchased BPS Bioscience
T1 sequence (Q9Y233 whole entry): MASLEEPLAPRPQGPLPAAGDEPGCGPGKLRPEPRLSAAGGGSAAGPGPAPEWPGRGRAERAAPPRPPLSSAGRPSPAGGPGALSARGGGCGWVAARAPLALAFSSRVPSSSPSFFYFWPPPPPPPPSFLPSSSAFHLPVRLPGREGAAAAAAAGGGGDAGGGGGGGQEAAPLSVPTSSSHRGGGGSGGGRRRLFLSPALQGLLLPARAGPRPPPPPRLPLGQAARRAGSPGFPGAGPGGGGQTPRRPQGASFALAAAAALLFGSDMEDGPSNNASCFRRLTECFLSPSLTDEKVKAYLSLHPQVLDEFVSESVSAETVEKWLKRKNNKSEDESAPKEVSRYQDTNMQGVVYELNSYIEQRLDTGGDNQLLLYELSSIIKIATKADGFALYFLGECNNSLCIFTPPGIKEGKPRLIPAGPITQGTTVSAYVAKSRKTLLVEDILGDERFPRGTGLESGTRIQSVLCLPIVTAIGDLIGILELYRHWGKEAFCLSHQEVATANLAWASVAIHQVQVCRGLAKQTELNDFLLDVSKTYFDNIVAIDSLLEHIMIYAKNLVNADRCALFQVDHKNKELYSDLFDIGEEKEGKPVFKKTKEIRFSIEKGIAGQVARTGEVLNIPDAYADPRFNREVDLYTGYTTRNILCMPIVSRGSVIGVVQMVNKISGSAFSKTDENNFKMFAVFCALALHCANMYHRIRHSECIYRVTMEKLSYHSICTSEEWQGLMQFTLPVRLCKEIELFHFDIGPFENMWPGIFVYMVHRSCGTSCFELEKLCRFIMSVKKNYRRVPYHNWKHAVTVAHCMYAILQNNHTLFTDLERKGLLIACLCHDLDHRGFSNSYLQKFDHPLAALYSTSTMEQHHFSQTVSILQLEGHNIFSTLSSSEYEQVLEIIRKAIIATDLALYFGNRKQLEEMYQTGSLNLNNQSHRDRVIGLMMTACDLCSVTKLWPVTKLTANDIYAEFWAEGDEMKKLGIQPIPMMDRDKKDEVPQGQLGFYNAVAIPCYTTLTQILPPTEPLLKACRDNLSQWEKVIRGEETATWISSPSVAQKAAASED
Description: We therefore defined the structure activity relationship (SAR) of PPV relative to two assays: inhibition of cellular OCR by Seahorse XE assay, and inhibition of PDE10A by purified enzyme activity (PDE10A activity assay, BPS Bioscience). […] Because the top portion of PPV was a planar structure like that of rotenone, we decided to focus our attention on the lower portion of the molecule.

[5] = tested on: MC38 colorectal tumor; experiment: MC38 colorectal tumors in C57Bl6 mice, sensitization to anti PD-1; type: in vivo, mouse
Experimental: MC38 tumors grown in C57B16 mice were treated as indicated with irrelevant antibody, anti PD-1, or anti PD-1 after PPV or SMV32 n=5-7, P=<0.05* for PPV and <0.01** for SMV32.
Papaverine and SMV32 enhance PD-1 checkpoint blockade immunotherapy for cancer treatment. Because of the literature describing the immunomodulatory effects of hypoxia^(24-27), we hypothesized that reducing hypoxia may also enhance tumor lymphocyte infiltration and function and improve immune-mediated tumor cell killing. As those of skill in the art recognize, there is a large body of literature and research on increase the supply side of the hypoxia equation, but it has been heretofore an unexpected approach to decrease the tri demand side of the hypoxia equation. We tested tumors grown from the relatively immune-sensitive syngeneic MC38 colorectal tumor line in immuno-competent C5713116 mice. […] In a second cohort, we implanted 1×10^6 cells/mouse and after 5 days, when tumors were 50-100 mm^3, they were randomized into four groups. Therapy was started with either control rat IgG antibody, or a suboptimal dose of anti PD-1(CD279) blocking monoclonal antibody (BioXCell, clone 29F.1A12, 100 μg ip every 3 days).

[6] = tested on: CMT167 flank lung tumors; experiment: CMT167 flank lung tumors in C57Bl6 mice, sensitization to anti PD-1; type: in vivo, mouse; conditions: given 16 hours prior to sub-optimal anti-PD-1, days 10 and 13
Experimental: C57B16 mice bearing CMT167 flank lung tumors were treated as indicated on days 10 and 13 and relative volume followed.
There are reports in the literature indicating ways that hypoxia affects immune functions of lymphocytes, MDSCs and T regulatory cells infiltrating in the tumor.

[7] = tested on: LLC tumor; experiment: Lewis Lung Carcinoma (LLC) PD-1 blockade resistant tumor model; type: in vivo, mouse; conditions: treated on days 5, 8
Experimental: LLC tumor bearing mice were treated as indicated on days 5, 8 and relative growth followed. P=NS for PD-1 vs PPV->PD1, 0.04 for PD-i vs SMV32->PD-1.
Finally, as a rigorous test of anti-hypoxia agents as immuno-sensitizers of model tumors grown in mice, we next tested the PD-1 blockade resistant tumor model Lewis Lung Carcinoma (LLC). These tumors have been reported to be refractory to even full dose (200 ug/mouse) PD-1 blocking antibody.

[8] = tested on: orthotopic MP2 pODD tumors; experiment: in vivo bioluminescent imaging, orthotopic MP2 pODD tumors; parameters: species or system mouse; conditions: tail vein injection
Experimental: (§2) Orthotopic Panreatic Xenografts. MP2 PD AC cells (1×10^6) or the indicated derivates were implanted in immune-deficient athymic nu/nu mice following fACLIC approved protocols. Briefly, an incision was placed in the right flank of anesthetized animals the spleen and pancreas liberated. Cells were mixed 1:1 with Matfigel and implanted in the tail of the pancreas in 10 μl. Incision was sutured in 2 layers, animals given long lasting analgesics, and allowed to recover from anesthesia. Mice were returned to housing for post-op care and monitored daily for 4 days. Animals were checked weekly after that by palpation to determine tumor growth.
(§3) In vivo bioluminescent imaging. All animal experiments were performed according to protocols approved by the OSU institutional IAGLIC review (protocol #201200000124-R2), with daily veterinarian observation. For heterotopic flank tumor experiments, 1×10^6 HeLa pODD or 5×10^6 MP2 cells were injected subcutaneously (s.c.) into the flanks of 6-wk-old female (HeLa pODD) or male (N1P2 pODD or MP2 CMV) immunocompromised athymic nu/nu mice. […] Mice were anesthetized with 1.5% isoflurane and bioluminescence was measured every two minutes for the period of 25 minutes to identify peak response of each mouse to D-luciferin. Bioluminescent data were analyzed using living Image software (Perkin Elmer Inc) and calculated as photon flux/sec. […]

[9] = tested on: orthotopic MP2 CMV tumors; experiment: in vivo bioluminescent imaging, orthotopic MP2 CMV tumors; parameters: species or system mouse; conditions: single dose of 2 mg/kg by tail vein, up to 6 hours post injection
Experimental: as §2, §3

[10] = tested on: HeLa pODD flank tumors; experiment: in vivo bioluminescent imaging, HeLa pODD flank tumors; parameters: species or system mouse; conditions: 4 mg/kg by tail vein
Experimental: In vivo bioluminescent imaging. All animal experiments were performed according to protocols approved by the OSU institutional IAGLIC review (protocol #201200000124-R2), with daily veterinarian observation. For heterotopic flank tumor experiments, 1×10^6 HeLa pODD or 5×10^6 MP2 cells were injected subcutaneously (s.c.) into the flanks of 6-wk-old female (HeLa pODD) or male (N1P2 pODD or MP2 CMV) immunocompromised athymic nu/nu mice. Replicate experiments with groups of 4-6 mice were used for statistical reproducibility. Caliper measurements of opposing diameters were used to calculate the tumor volumes using the modified ellipsoidal formula: tumor volume=(length×width^2)[23]. Upon reaching 100 mm^3, the animals were given 100 mg/kg D-luciferin intraperitoneally and bioluminescence images were captured using IVIS In Vivo Imaging System Lumina II (Perkin Elmer Inc). Mice were anesthetized with 1.5% isoflurane and bioluminescence was measured every two minutes for the period of 25 minutes to identify peak response of each mouse to D-luciferin. Bioluminescent data were analyzed using living Image software (Perkin Elmer Inc) and calculated as photon flux/sec. Obtained individual photon flux peak values were then normalized to baseline for each mouse and averaged per group. […]

[11] = tested on: spontaneous canine soft tissue sarcoma; experiment: BOLD MRI of spontaneous canine soft tissue sarcoma; type: in vivo, dog; conditions: for fraction of tumors responding well (T2* increase): one hour
Experimental: BOLD MRI analysis of canine tumors. Canine patients with primary sarcomas were enrolled in a trial to evaluate the effects of papaverine delivered at a dose of 1 or 2 mg/kg using ire blood oxygen level dependent (BOLD) magnetic resonance imaging (MRI). Dogs were anesthetized with isoflurane in medical air to effect on the bed of a Philips ingenia 3.071 UR scanner. They were first imaged with T1- (TR: 700ms, TE: 9ms, resolution 0.3×0.3×3 mm) and T2-weighted (TR: 3000 ms, TE: 80ms, resolution 0.4×0.4×3 mm) scans in transaxial, coronal, and sagittal orientations to acquire data covering the extent of the tumor. BOLD data were acquired as a series of 60 repeats of a volumetric echo-planar T2-weighted sequence (TR: 3000 ms, TE: 35 ms, resolution 1.6×1.6×4 mm) collected over a period of 3 minutes. In addition, a single slice fast field echo (FIFE) sequence (resolution 0.5×0.5×4 mm) was used to acquire 8 images at echo times from 5 to 75 ms, allowing fitting of pixel T2* values. After these acquisitions, papaverine was delivered intravenously and the BOLD and FEE data were acquired again one hour post-administration. All data were analyzed using the RT Image software package. BOLD data were registered using an affine transformation and percent signal change was calculated on a per-pixel basis: T2* values were fit on a pixel-by-pixel basis using a Levenberg-Marquardt least squares fit to a monoexponential decay function.

Structure (SMILES) | increase of pODD-Luc signal [1] | luciferase signal response [2] | photon flux ([3]; 4 mg intraperitoneally, 4 hours post injection) | PDE inhibition IC25 [4] | effect on PD-1 blockade ([5]; 2 mg/kg iv 16 hours prior to suboptimal anti PD-1 (100 μg ip every 3 days)) | tumor growth, compound alone ([5]; repeated dosing, no antibody) | tumor growth delay [6] | therapeutic effect, compound first and PD-1 antibody second [7] | photon flux ([3]; intraperitoneal delivery of 2 mg/kg) | reduction in photon flux compared to vehicle [8] | CMV luciferase activity vs vehicle [9] | photon flux reduction, dose comparison [10] | fraction of tumors responding well (T2* increase) ([11]; 1 mg/kg IV) | fraction of tumors responding well (T2* increase) ([11]; 2 mg/kg IV) | tumor oxygenation ([11]; 1 or 2 mg/kg IV)
COC(=O)CNC(=O)C(=O)OC [DMOG, dimethyloxalyglycine] | 2.2 × | unresponsive | significant increase of photon flux |  |  |  |  |  |  |  |  |  |  |  | 
COc1ccc(Cc2nccc3cc(OC)c(OC)cc23)cc1OC [PPV, papaverine] |  |  |  | 0.65 µM | enhance the effectiveness of suboptimal PD-1 blockade | no effect on tumor growth | significant tumor growth delay | no therapeutic benefit | did not reduce the photon flux | 45% | no difference | greater photon flux reduction than the 2 mg/kg dose | 1/4 | 3/5 | increases oxygenation
